Experimental data reported in US11992499B2, “Quinoline derivatives for use in the treatment of inflammation diseases” (ABIVAX, priority 2018, dated 2024).

How the values were obtained:
[1] = tested on: Sugen hypoxia model; assay: Rat Sugen hypoxia model of pulmonary arterial hypertension: mean pulmonary pressure; type: in vivo; settings: SuHx, 50 mg/kg BID gavage Day 22 to Day 56
Method: Animals from Groups 2 to 5 (see Table 10) receive a single subcutaneous injection of sugen (20 mg/kg in 2 mL/kg volume) solution (10 mg/mL) on Day 0 and returned to their cages. Animals from Group 1 receive one subcutaneous injection of DMSO at 2 mL/kg (vehicle for sugen) on Day 0 and returned to their respective cages.
Groups 2-5 are placed in cages for which the controlled air is adjusted to receive a FiO2 equivalent to 0.10 (10%) using a mixture of nitrogen and ambient air controlled by the ventilated cage system. They are kept under these hypoxic conditions for 21 days. While in hypoxia, cages are cleaned and changed once a week, exposing the animals to ambient oxygen levels for less than 10 minutes. They are exposed to ambient oxygen levels from Day 22 to Day 56. Group 1 animals remain in cages exposed to ambient oxygen (normoxic) levels for 56 days. The animals are observed on a daily basis for any changes in their behaviour and general health status.
(§1) Treatment with the compound A, sildenafil or vehicle is administered as of Day 22 (Groups 2-5) as scheduled and described in Table 10. The Groups 2-4 receives a single dose per day. The reference group 5 receives sildenafil twice a day. Food and water are given ad libitum. Daily observation of the behaviour and general health status of the animals is done. Weekly body weight is taken.
Surgical Instrumentation and Measurement of Hemodynamic and Functional Parameters in Efficacy Study Animals • 1. On the selected day of surgery, rats are anaesthetized with a mixture of 2 to 2.5% isoflurane USP (Abbot Laboratories, Montreal, Canada) in oxygen, and placed on a heating pad to maintain body temperature. • 2. Rats are tracheotomized and immediately ventilated by means of a positive-pressure rodent respirator set at ≈10 ml/kg body weight at a frequency of 65-70 strokes/min. • 3. Lead II ECG contact electrodes is placed on the rat to continuously monitor the ECG during the surgical procedure. • 4. A cannula connected to a pressure transducer is inserted into the left femoral artery to measure the arterial blood pressure. • 5. A cannula connected to a pressure transducer is inserted into the right atria through the right jugular vein to measure the right atria pressure. • 6. The heart is exposed through a sternotomy and a 20GA 1.16 in Insyte is introduced into the right ventricle and rapidly hooked up to a saline filled PE-50 catheter connected to a transducer. • 7. Following a few seconds of right ventricular pressure recording, the Insyte is further advanced into the pulmonary artery to allow PAP recording for an additional 60 seconds. • 8. Hemodynamic parameters are recorded continuously for the duration of the procedure or until loss of PAP signal. • 9. Following hemodynamic monitoring, chest cavity is further opened to expose the lung. The muscle over the trachea is dissected away to remove the lungs and heart. Harvested tissue is rinsed with PBS to remove any excess of blood before to be weighed. • 10. For the histology and casting of the lungs, the process is as follows; 1) eight (8) rats per group is reserved to assess the histology of the left lung and is therefore be treated as described in point 12 of this section 8.2; 2) Two (2) rats per group serve to enable quantitative characterization of the three-dimensional vascular structure of the left lung and therefore is treated as described in section 8.3 for casting of the left lung. • 11. For histology, the left lobe is inflated using a 10 mL syringe filled with fixative (10% NBF) with attached blunt tip needle (23 g). Needle tip is inserted into the trachea, held in place with tied suture while another syringe is tied to the pulmonary artery. The lung is inflated gently at physiological pressure (20-25 mmHg) until all lobes are fully, uniformly, and consistently expanded (not allowing fixative to ooze through lung surface). This provides optimal vascular and airway expansion without causing excessive tissue disruption. […]

[2] = tested on: monocrotaline model of pulmonary arterial hypertension; assay: Rat monocrotaline model of pulmonary arterial hypertension: mean pulmonary pressure; type: in vivo; settings: female rat, MCT, 50 mg/kg BID gavage Day 7 to Day 28, n = 11
Method: • 1. The experimental trace to be analyzed is opened in Clampfit. • 2. Right atria pressure is recorded for 1 minute • 3. PAP recorded continuously for at least 1 minute or until loss of signal, is used to extract the mean, diastolic, and systolic pulmonary pressure. • 4. The systemic arterial pressure (SAP) recorded continuously is used to extract the mean, diastolic and systolic arterial pressure. • 5. At the end of the hemodynamic parameters recording, the right and left ventricle including the septum and the lung lobes is excised to determine wet weights. • 6. Each parameter is compiled for each group and presented in bar graphs with appropriate statistical analysis.
The appropriate amount of monocrotaline is weighed and ⅓ of the correct volume of 1.0N HCl is added and mixed to ensure monocrotaline solubilisation. The solution is then neutralized with ⅓ of the correct volume of 1.0 N NaOH. The pH of the solution is checked with a pH indicator paper/strip or an electronic pH meter and adjusted to neutral as necessary; the final volume is completed with water for injection to obtain a solution of 20 mg/mL. The monocrotaline solution is injected subcutaneously, over the shoulders, into the loose skin over the neck, to each rat at 3 mL/kg of body weight (dose is 60 mg/kg).
Compound A was administered as a suspension in the vehicle. To reach the required concentrations, compound A was grounded to a fine powder, using a mortar and pestle, and then mixed with 20% (final volume) of vehicle A1 until a suspension was achieved. 80% of vehicle A2 was then added to the suspension under magnetic stirring.
The appropriate amount of Sildenafil is weighed and appropriate volume of distillated water is added to obtain suspension at 5 mg/mL. The suspension is mixed with a stir bar for 30-60 minutes until a homogenous suspension is achieved. Care is taken to maintain a uniform suspension (stirring continuously) whilst doses are being drawn up into gavage syringes. One gavage syringe is filled at a time and administered before filling the next syringe. The solutions are stored refrigerated at 2 to 8° C. and protected from light. The expiration date is set at 7 days after preparation.
Animals from Groups 2 to 5 (see Table 13) receive a single subcutaneous injection of monocrotaline (60 mg/kg) solution on Day 0 and returned to their cages. Animals from Group 1 receive one subcutaneous injection vehicle for MCT on Day 0 and returned to their respective cages.
as §1, with “Day 7” for “Day 22”, “Table 13.” for “Table 10.”, “2-4 receive” for “2-4 receives”
Surgical Instrumentation and Measurement of Hemodynamic and Functional Parameters in Efficacy Study Animals • 1. On the selected day of surgery, rats are anaesthetized with a mixture of 2 to 2.5% isoflurane USP (Abbot Laboratories, Montreal, Canada) in oxygen, and placed on a heating pad to maintain body temperature. • 2. Rats are tracheotomized and immediately ventilated by means of a positive-pressure rodent respirator set at ≈10 ml/kg bodyweight at a frequency of 65-70 strokes/min. • 3. Lead II ECG contact electrodes is placed on the rat to continuously monitor the ECG during the surgical procedure. • 4. A cannula connected to a pressure transducer is inserted into the left femoral artery to measure the arterial blood pressure. • 5. A cannula connected to a pressure transducer is inserted into the right atria through the right jugular vein to measure the right atria pressure. • 6. The heart is exposed through a sternotomy and a 20GA 1.16 in Insyte is introduced into the right ventricle and rapidly hooked up to a saline filled PE-50 catheter connected to a transducer. • 7. […]

## CCCc1nn(C)c2c(=O)[nH]c(-c3cc(S(=O)(=O)N4CCN(C)CC4)ccc3OCC)nc12 [Sildenafil, reference compound]
[1]; female rats
  Mean Pulmonary Pressure: 22.5 mmHg
[1]; male rats
  Mean Pulmonary Pressure: 30.1 mmHg
[2]
  Mean Pulmonary Pressure: 18.9 mmHg
